Reference: paper PMC12753884, “Naringenin targets FimZ to regulate type I fimbriae and reduce the virulence of Salmonella” (Frontiers in Cellular and Infection Microbiology, 2025)

What was measured:
Format in all cases: binding
FimZ [1] = biological target: T1, FimZ (Salmonella enterica, UniProt P26319, I135A); experiment: SPR (Biacore X100, His-antibody capture on CM5 chip)
T1 construct: Flag-FimZ-His mutant
T1 sequence (P26319 1-210 I135A): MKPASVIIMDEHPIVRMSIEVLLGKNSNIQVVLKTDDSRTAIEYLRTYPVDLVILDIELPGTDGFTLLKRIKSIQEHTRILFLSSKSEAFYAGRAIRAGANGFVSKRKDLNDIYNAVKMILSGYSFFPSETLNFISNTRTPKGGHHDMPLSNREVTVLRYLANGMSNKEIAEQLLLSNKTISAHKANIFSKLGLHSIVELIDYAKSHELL

FimZ [2] = biological target: T2, FimZ (Salmonella enterica, UniProt P26319, T138A); experiment: as above
T2 construct: Flag-FimZ-His mutant
T2 sequence (P26319 1-210 T138A): T1 sequence (P26319 1-210 I135A)

FimZ [3] = biological target: T3, FimZ (Salmonella enterica, UniProt P26319); experiment: SPR (Biacore X100, His-antibody capture on CM5 chip); EMSA support
T3 construct: Flag-FimZ-His, whole fimZ fragment of SL1344 in pET-28a

`O=C1C[C@@H](c2ccc(O)cc2)Oc2cc(O)cc(O)c21` [Nar, naringenin] showed a Kd (FimZ [1]) of 152 µM, a Kd (FimZ [2]) of 412 µM and a Kd (FimZ [3]) of 33.9 µM.
